Data reported in paper PMC3881423 (Journal of medicinal chemistry, 2013).

Assays:
MAO-A = MAO-A (Homo sapiens, UniProt P21397)
MAO-B = MAO-B (Homo sapiens, UniProt P27338)
LSD1 [1] = target: T1, LSD1 (Homo sapiens, UniProt O60341)
MGC-803 cells [2] = conditions: MGC-803, 0.25 μM
LSD1 [3] = target: T1, LSD1; conditions: dialyzed against hepes buffer 4°C 24 h
MGC-803 cells [4] = conditions: MGC-803, 0.02 μM, 48 h
LSD1 [5] = target: T1, LSD1; conditions: monitored at 468nm; data not shown
[6] = target: LSD1-snai1 complex in MGC-803 cells (Homo sapiens, UniProt O60341); conditions: MGC-803, 48h; 2-PCPA 100, 250μM
[7] = target: purified LSD1 recombinant (Homo sapiens, UniProt O60341)
LSD1 [8] = target: T1, LSD1; experiment: Microscale thermophoresis; assay type: binding

MAO-A, sequence (P21397 whole entry, species assumed): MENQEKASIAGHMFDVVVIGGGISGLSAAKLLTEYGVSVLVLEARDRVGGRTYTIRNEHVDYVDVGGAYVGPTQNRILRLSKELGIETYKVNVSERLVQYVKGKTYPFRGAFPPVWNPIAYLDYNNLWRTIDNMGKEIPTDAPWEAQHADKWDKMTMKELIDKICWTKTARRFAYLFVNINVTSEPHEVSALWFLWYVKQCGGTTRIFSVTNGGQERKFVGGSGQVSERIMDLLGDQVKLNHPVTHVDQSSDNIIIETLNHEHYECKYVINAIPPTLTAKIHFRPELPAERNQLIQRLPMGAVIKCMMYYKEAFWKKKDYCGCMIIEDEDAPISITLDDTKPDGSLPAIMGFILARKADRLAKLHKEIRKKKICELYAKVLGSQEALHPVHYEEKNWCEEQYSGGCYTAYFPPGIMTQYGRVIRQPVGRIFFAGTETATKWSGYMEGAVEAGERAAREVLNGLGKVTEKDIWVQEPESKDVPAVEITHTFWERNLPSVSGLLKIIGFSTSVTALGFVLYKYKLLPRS
MAO-B, sequence (P27338 whole entry, species assumed): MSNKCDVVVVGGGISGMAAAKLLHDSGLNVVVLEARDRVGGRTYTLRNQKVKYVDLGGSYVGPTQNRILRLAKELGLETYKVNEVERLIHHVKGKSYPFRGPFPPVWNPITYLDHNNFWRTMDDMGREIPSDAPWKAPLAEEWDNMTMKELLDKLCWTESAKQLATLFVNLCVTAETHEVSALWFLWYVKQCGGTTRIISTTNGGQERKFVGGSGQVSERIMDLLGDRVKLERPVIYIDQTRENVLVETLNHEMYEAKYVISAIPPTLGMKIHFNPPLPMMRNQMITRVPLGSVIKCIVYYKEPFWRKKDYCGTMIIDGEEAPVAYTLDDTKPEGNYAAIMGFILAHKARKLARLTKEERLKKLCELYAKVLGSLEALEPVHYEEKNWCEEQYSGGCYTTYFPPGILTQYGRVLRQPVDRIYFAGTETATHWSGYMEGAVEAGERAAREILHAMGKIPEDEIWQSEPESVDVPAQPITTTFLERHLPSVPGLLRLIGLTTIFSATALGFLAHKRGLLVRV

SMILES: CC(C)(C)OC(=O)N1CCN(C(=S)SCc2cn(Cc3ccccc3F)nn2)CC1 [Compound 22, tert Butyl 4-(((1-(2-fluorobenzyl)-1H-1,2,3-triazol-4-yl)methylthio)carbonothioyl)-piperazine-1-carboxylate]
- effect on MAO-A activity (in words) (MAO-A): no significant effects
- effect on MAO-B activity (in words) (MAO-B): no significant effects

SMILES: Cc1ccc(Cn2cc(CSC(=S)N3CCN(C(=O)OC(C)(C)C)CC3)nn2)cc1 [Compound 26, tert Butyl 4-(((1-(4-methylbenzyl)-1H-1,2,3-triazol-4-yl)methylthio)carbonothioyl)-piperazine-1-carboxylate]
- effect on MAO-A activity (in words) (MAO-A): no significant effects
- mode of inhibition over LSD1 substrate H3K4me2 (LSD1 [1]; FAD 2.5 μM, peptide 10 to 80 μM): non-competitive inhibitor
- mode of inhibition over LSD1 cofactor FAD (LSD1 [1]; peptide 25 μM, FAD 0.6 to 9.0 μM): competitive inhibitor
- cell proliferation (MGC-803 cells [2]): cannot inhibit the cell proliferation
- LSD1 activity after dialysis (LSD1 [3]): the activity can be restored
- cell migration (MGC-803 cells [4]): significantly inhibited
- amount of FAD in the dialysis tube after dialysis (LSD1 [5]): much less than that in control group
- effect on MAO-B activity (in words) (MAO-B): no significant effects
- binding of LSD1 to snai1 [6]: significantly decreased

SMILES: Cc1ccccc1Cn1cc(CSC(=S)N2CCN(C(=O)OC(C)(C)C)CC2)nn1 [Compound 29]
- LSD1 inhibitory activity (in words) [7]: without any detectable activity

SMILES: CC(C)(C)OC(=O)N1CCN(C(=S)SCc2cn(CCOc3cc(=O)oc4ccccc34)nn2)CC1 [Compound 47]
- LSD1 inhibitory activity (in words) [7]: complete loss of activity or very weak binding affinity

SMILES: CC(C)(C)OC(=O)N1CCN(C(=S)SCc2cn(Cc3ccc4ccccc4c3)nn2)CC1 [Compound 48]
- LSD1 inhibitory activity (in words) [7]: complete loss of activity or very weak binding affinity

SMILES: CC(C)(C)OC(=O)N1CCN(C(=S)SCc2cn(Cc3cc(=O)[nH]c4ccccc34)nn2)CC1 [Compound 49]
- LSD1 inhibitory activity (in words) [7]: complete loss of activity or very weak binding affinity

SMILES: CC(C)(C)OC(=O)N1CCN(C(=S)SCc2cn(Cc3nc4ccccc4[nH]3)nn2)CC1 [Compound 50]
- LSD1 inhibitory activity (in words) [7]: complete loss of activity or very weak binding affinity

SMILES: CC(C)(C)OC(=O)N1CCN(C(=S)SCc2cn(CC3=CC(=O)OC3)nn2)CC1 [Compound 51]
- LSD1 inhibitory activity (in words) [7]: complete loss of activity or very weak binding affinity

SMILES: Cc1cc2nc3c(=O)[nH]c(=O)nc-3n(C[C@H](O)[C@H](O)[C@H](O)COP(=O)(O)OP(=O)(O)OC[C@H]3O[C@@H](n4cnc5c(N)ncnc54)[C@H](O)[C@@H]3O)c2cc1C [FAD, flavin adenine dinucleotide]
- Kd (LSD1 [8]): 182 nM
